Where two headings read alike, the source gives them in different places.
Key:
[1] = tested on: Klebsiella pneumoniae expressing VIM-1 (IHMA599644); assay: Antibiotic potentiation activity: synergistic concentration (MITC95) with imipenem, growth by OD600; assay type: cell-based
Method: (§1) Antibiotic Potentiation Activity: Determination of Synergistic Concentration
(§2) The bacterial strains tested included the clinical strains Escherichia coli expressing NDM-1 (CLB30005, CLB30016), Serratia marcescens expressing IMP-1 (CL5741), and Klebsiella pneumoniae expressing VIM-1 (IHMA599644). Inhibitor activity was measured in the presence and absence of imipenem or ceftazidime in a 384-well microplate.
(§3) The clinical strains CLB30016, CL5741, and IHMA599644 were grown on trypticase soy agar containing 5% sheep's blood. The clinical strain CLB30005 was grown on Mueller Hinton broth agar containing 8 μg/ml imipenem. The bacteria on agar plates were incubated overnight at 35° C. with ambient humidity (achieved from an open pan of water inside the incubator). The following day, individual colonies from each clinical strain were picked and resuspended in 5 ml saline to attain an OD600 of 0.14, 0.11, 0.15 and 0.13, for CLB30005, CLB30016, CL5741 and IHMA599644, respectively. These were further diluted 1:100 into 1.1×CAMHB and used to inoculate the test wells as described below.
(§4) Imipenem in 10 mM 3-(N-morpholino)propanesulfonic acid (MOPS, pH 7) was stored in single use aliquots at −80° C. Test inhibitors were dissolved in DMSO and diluted 1:50 in the assay, resulting in a final concentration range of 200 μM to 0.195 μM. On the day of the assay, 4 μl of antibiotic was added to 45 μl of bacteria followed by 1 μl of test compound and mixed by pipetting and with an orbital shaker. The concentration of antibiotic used in the assay was 1 μg/ml or 4 μg/ml. Microplates were covered and incubated at 35° C. for 22 hours to 24 hours. At the end of the incubation, absorbance was determined using a spectrophotometer. The synergistic concentration of MBLI was determined by identifying the lowest concentration of test compound in the presence of a given concentration of antibiotic that was required to inhibit 95% of the growth of the bacteria.
(§5) Representative compounds of the present invention display a synergistic effect. For example, representative compounds of EXAMPLES 1-456 were determined to restore susceptibility to imipenem at concentrations of 200 μM or less.

[2] = tested on: Serratia marcescens expressing IMP-1 (CL5741); assay: as above; assay type: cell-based
Method: as §1, §2, §3, §4, §5

[3] = tested on: Escherichia coli expressing NDM-1 (CLB30016); assay: as above; assay type: cell-based
Method: as §1, §2, §3, §4, §5

IMP-1 = IMP-1 (Serratia marcescens, UniProt P52699); assay: Enzyme activity: determination of IC50, fluorescence assay with CCF2-FA substrate; assay type: biochemical; details: CCF2-FA 1.25 μM, 2 hours at 25° C., read-out: IMP1 IC50
Method: (§6) Enzyme Activity: Determination of IC50
(§7) The Class B enzyme activities were measured in the presence of a compound of the EXAMPLES as a test inhibitor in a fluorescence assay against a commercially available substrate consisting of a cephalosporin core linking 7-hydroxycoumarin to fluorescein (CCF2-FA; Life Technologies, Grand Island, N.Y.). The enzyme (NDM-1, IMP-1 or VIM-1) and the substrate were diluted in 100 mM KH2PO4 buffer (pH 7) containing 0.005% Tween-20 and 10 μM ZnSO4. In the assay, the final concentration of enzyme was 1 pM, 2 pM and 30 pM for NDM-1, IMP-1 and VIM-1, respectively, and the final concentration of CCF2-FA was 1.25 μM. The test inhibitor was dissolved in DMSO and diluted 1:50 in the assay, resulting in a final concentration range of 20 μM to 0.00063 μM. In a 384-well microplate, the test inhibitor was incubated with the metallo-β-lactamase enzyme and the substrate for 2 hours at 25° C. Fluorescence at 460 nm following excitation at 405 nm was measured. The IC50 value was determined from semi-logarithmic plots of enzyme inhibition versus inhibitor concentration, with a curve generated using a 4-parameter fit.

NDM-1 = NDM-1 (Klebsiella pneumoniae, UniProt C7C422); assay: as above; assay type: biochemical; details: CCF2-FA 1.25 μM, 2 hours at 25° C., read-out: NDM1 IC50
Method: as §6, §7

VIM-1 = VIM-1 (Pseudomonas aeruginosa, UniProt A0A0F7KYQ8); assay: as above; assay type: biochemical; details: CCF2-FA 1.25 μM, 2 hours at 25° C., read-out: VIM1 IC50
Method: as §6, §7

[4] = 95% inhibition of bacterial growth, strain IHMA599644
[5] = 95% inhibition of bacterial growth, strain CL5741
[6] = 95% inhibition of bacterial growth, strain CLB30016
[7] = K. pneumoniae IHMA599644 (VIM-1), 95% inhibition of growth
[8] = S. marcescens CL5741 (IMP-1), 95% inhibition of growth
[9] = E. coli CLB30016 (NDM-1), 95% inhibition of growth

NDM-1, sequence (C7C422 29-270, looked up, species assumed): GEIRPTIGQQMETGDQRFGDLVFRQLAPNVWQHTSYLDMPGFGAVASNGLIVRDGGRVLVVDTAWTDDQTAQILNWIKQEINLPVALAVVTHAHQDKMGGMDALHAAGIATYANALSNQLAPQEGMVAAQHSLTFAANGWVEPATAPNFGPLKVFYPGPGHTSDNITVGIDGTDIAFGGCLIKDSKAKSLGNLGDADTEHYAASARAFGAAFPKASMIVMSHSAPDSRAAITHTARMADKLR
IMP-1, sequence (P52699 19-246, looked up, species assumed): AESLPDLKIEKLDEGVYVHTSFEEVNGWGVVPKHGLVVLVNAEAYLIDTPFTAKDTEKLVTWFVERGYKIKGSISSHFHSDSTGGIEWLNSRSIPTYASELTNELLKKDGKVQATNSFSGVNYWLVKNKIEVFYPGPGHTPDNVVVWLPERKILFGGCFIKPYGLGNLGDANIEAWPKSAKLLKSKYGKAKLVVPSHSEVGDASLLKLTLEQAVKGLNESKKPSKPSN

Row | SMILES | VIM1 KP599644 MITC95 [1, 4] | IMP1 SM5741 MITC95 [2, 5] | NDM1 EC30016 MITC95 [3, 6] | IC50 (IMP-1; enzyme 2 pM) | IC50 (NDM-1; enzyme 1 pM) | IC50 (VIM-1; enzyme 30 pM) | VIM1 KP599644 MITC95 [1, 7] | IMP1 SM5741 MITC95 [2, 8] | NDM1 EC30016 MITC95 [3, 9] | IC50 (IMP-1; IMP-1 enzyme 2 pM) | IC50 (NDM-1; NDM-1 enzyme 1 pM) | IC50 (VIM-1; VIM-1 enzyme 30 pM)
1 | CC(C)[C@H](C(=O)O)[C@H](Cc1csc(C2CCNC2)n1)c1nnn[nH]1 (stereo partly drawn) [Example 108, (2S,3S)-2-isopropyl-4-(2-(pyrrolidin-3-yl)thiazol-4-yl)-3-(1H-tetrazol-5-yl)butanoic acid] | 37 µM | >200 µM | 12.5 µM | > 20000 nM | 2800 nM | 750 nM |  |  |  |  |  | 
2 | CCC[C@H](C(=O)O)[C@H](Cc1ccc(C(=O)NCCO)cc1)c1nnn[nH]1 [Example 280, (2S)-2-[(1S)-2-{4-[(2-hydroxyethyl)carbamoyl]phenyl}-1-(1H-tetrazol-5-yl)ethyl]pentanoic acid] |  |  |  |  |  |  | 25 µM | 25 µM | 18.8 µM | 880 nM | 140 nM | 2.7 nM
3 | CCC[C@H](C(=O)[O-])[C@H](Cc1cc[n+](C)cc1)c1nnn[nH]1 [Example 417, (S)-2-((S)-2-(1-methylpyridin-1-ium-4-yl)-1-(1H-tetrazol-5-yl)ethyl)pentanoate] |  |  |  |  |  |  | 9.375 µM | 200 µM | 4.688 µM | 11100 nM | 1280 nM | 45.1 nM
4 | CC(C)[C@H](C(=O)O)[C@H](Cc1ccc(C2=CCNC2)nc1)c1nnn[nH]1 [Example 64, (2S,3S)-4-(6-(2,5-dihydro-1H-pyrrol-3-yl)pyridin-3-yl)-2-isopropyl-3-(1H-tetrazol-5-yl)butanoic acid] | 12.5 µM | 50 µM | 6.2 µM | 12000 nM | 300 nM | 8.4 nM |  |  |  |  |  | 
5 | CC(C)(C)C(C(=O)O)[C@H](Cc1ccc(Br)s1)c1nnn[nH]1 (stereo partly drawn) [Example 426, (3S)-4-(5-bromothiophen-2-yl)-2-(tert-butyl)-3-(1H-tetrazol-5-yl)butanoic acid] |  |  |  |  |  |  | 150 µM | 2.344 µM | 12.5 µM | 27.9 nM | 142 nM | 49.5 nM
6 | CC(C)C[C@H](C(=O)O)[C@H](Cc1ccc(CCN2CCCCC2=O)c(F)c1)c1nn[nH]n1 [Example 438, (S)-2-((S)-2-(3-fluoro-4-(2-(2-oxopiperidin-1-yl)ethyl)phenyl)-1-(2H-tetrazol-5-yl)ethyl)-4-methylpentanoic acid] |  |  |  |  |  |  | 75 µM | 1.172 µM | 25 µM | 4.84 nM | 13.4 nM | 1.57 nM
7 | CCC[C@H](C(=O)O)[C@H](Cc1cccc(-c2ccncc2)c1)c1nn[nH]n1 [Example 353, (2S)-2-[(1S)-2-(3-pyridin-4-ylphenyl)-1-(2H-tetrazol-5-yl)ethyl]pentanoic acid] |  |  |  |  |  |  | 100 µM | 6.2 µM | 38 µM | 160 nM | 13 nM | 2.3 nM
8 | CC(C)C[C@H](C(=O)O)[C@H](Cc1ccc(N2CC(CCO)C2)nc1)c1nnn[nH]1 [Example 333, (2S)-2-[(1S)-2-{6-[3-(2-hydroxyethyl)azetidin-1-yl]pyridin-3-yl}-1-(1H-tetrazol-5-yl)ethyl]-4-methylpentanoic acid] |  |  |  |  |  |  | 38 µM | 12.5 µM | 1.6 µM | 170 nM | 58 nM | 8.2 nM
9 | CC(C)C[C@H](C(=O)O)[C@H](Cc1ccc(CCN)c(F)c1)c1nn[nH]n1.O=C(O)C(F)(F)F [Example 445, 2-(4-((2S,3S)-3-carboxy-5-methyl-2-(2H-tetrazol-5-yl)hexyl)-2-fluorophenyl)ethanaminium 2,2,2-trifluoroacetate] |  |  |  |  |  |  | 12.5 µM | 25 µM | 9.375 µM | 693 nM | 281 nM | 1.98 nM
10 | CCC[C@H](C(=O)O)[C@@H](Cc1ccc(-c2ccc3c(c2)OCC(=O)N3)cn1)c1nnn[nH]1 [Example 182, (2S)-2-[(1R)-2-[5-(3-oxo-3,4-dihydro-2H-1,4-benzoxazin-7-yl)pyridin-2-yl]-1-(1H-tetrazol-5-yl)ethyl]pentanoic acid] | >200 µM | >200 µM | 150 µM | 16000 nM | 1000 nM | 330 nM |  |  |  |  |  | 
11 | CC(C)C[C@H](C(=O)O)[C@H](Cc1ccc(-c2ccc(C(N)=O)cc2)c(F)c1)c1nn[nH]n1 [Example 456, (S)-2-((S)-2-(4′-carbamoyl-2-fluoro-[1,1′-biphenyl]-4-yl)-1-(2H-tetrazol-5-yl)ethyl)-4-methylpentanoic acid] |  |  |  |  |  |  | 37.5 µM | 0.7813 µM | 18.75 µM | 7.09 nM | 4.35 nM | 0.637 nM
12 | CC(C)C[C@H](C(=O)O)[C@H](Cc1ccc(-c2ccnc(N)c2)nc1)c1nn[nH]n1 [Example 178, (2S)-2-[(1S)-2-(2′-amino-2,4′-bipyridin-5-yl)-1-(2H-tetrazol-5-yl)ethyl]-4-methylpentanoic acid] | 25 µM | 12.5 µM | 9.4 µM | 390 nM | 43 nM | 2.4 nM |  |  |  |  |  | 
13 | CCC[C@H](C(=O)O)[C@H](Cc1ccc(-c2ccc(CC3CCNCC3)cc2)cc1)c1nn[nH]n1 [Example 301, (2S)-2-[(1S)-2-[4′-(piperidin-4-ylmethyl)biphenyl-4-yl]-1-(2H-tetrazol-5-yl)ethyl]pentanoic acid] |  |  |  |  |  |  | 100 µM | 2.3 µM | 12.5 µM | 68 nM | 43 nM | 31 nM
14 | CCC[C@H](C(=O)O)[C@H](Cc1ccc2ncc(N)cc2c1)c1nnn[nH]1 [Example 148, 3-amino-6-((2S,3S)-3-carboxy-2-(1H-tetrazol-5-yl)hexyl)quinolin-1-ium] | 25 µM | 12.5 µM | 25 µM | 400 nM | 25 nM | 0.94 nM |  |  |  |  |  | 
15 | CNC1CC=C(c2ccc(C[C@H](c3nn[nH]n3)[C@H](CC(C)C)C(=O)O)cc2F)CC1 (stereo partly drawn) [Example 451, 4′-((2S,3S)-3-carboxy-5-methyl-2-(2H-tetrazol-5-yl)hexyl)-2′-fluoro-N-methyl-2,3,4,5-tetrahydro-[1,1′-biphenyl]-4-aminium 2,2,2-trifluoroacetate] |  |  |  |  |  |  | 25 µM | 3.125 µM | 9.375 µM | 27.2 nM | 30.8 nM | 10.1 nM
